{"source": "paper PMC11359702", "about": "“Synthesis and Biochemical Evaluation of Ethanoanthracenes and Related Compounds: Antiproliferative and Pro-Apoptotic Effects in Chronic Lymphocytic Leukemia (CLL)” (Pharmaceuticals, 2024)", "key": {"[1]": {"tested_on": "HG-3 and PGA-1 cell lines", "assay": "alamarBlue cell viability assay, mean of both CLL cell lines", "assay_type": "cell-based, human", "settings": "Homo sapiens, CLL cell; mean of HG-3 and PGA-1"}, "[2]": {"tested_on": "HG-3 cells", "assay": "alamarBlue cell viability assay", "settings": "Homo sapiens, HG-3, 24 h; for IC50: read-out: HG-3 IC50; for viability at 10 µM: read-out: cell viability, HG-3, 10 µM, 24 h, vehicle = 100%; for viability at 1 µM: read-out: cell viability, HG-3, 1 µM, 24 h, vehicle = 100%"}, "[3]": {"tested_on": "PGA-1 cells", "assay": "alamarBlue cell viability assay", "settings": "Homo sapiens, 24 h; for IC50: read-out: PGA-1 IC50; for viability at 10 µM: read-out: cell viability"}, "[4]": {"tested_on": "HG-3 cells", "settings": "10 µM"}, "[5]": {"tested_on": "PGA-1 cells", "settings": "10 µM"}}, "data": [{"smiles": "N#CC1CC2c3ccccc3C1(/C=C/[N+](=O)[O-])c1ccccc12", "note": "(stereo not shown) [Compound 20e]", "values": [{"measurement": "IC50", "setting": "[1]", "value": 1400, "unit": "nM"}, {"measurement": "IC50", "setting": "[2]", "value": 1600, "unit": "nM"}, {"measurement": "viability at 10 µM", "setting": "[2]", "value": "14 to 43", "unit": "%"}, {"measurement": "IC50", "setting": "[3]", "value": 1100, "unit": "nM"}, {"measurement": "viability at 10 µM", "setting": "[3]", "value": 3, "unit": "%"}]}, {"smiles": "COc1ccc(C(=O)/C=C/c2c3ccccc3cc3ccccc23)cc1OC", "note": "[Compound 21e, (E)-3-(Anthracen-9-yl)-1-(3,4-dimethoxyphenyl)prop-2-en-1-one]", "values": [{"measurement": "viability at 1 µM", "setting": "[2]", "value": "50 to 61", "unit": "%"}, {"measurement": "viability at 10 µM", "setting": "[2]", "value": "37 to 54", "unit": "%"}]}, {"smiles": "O=C(C=CC12c3ccccc3C(c3ccccc31)C1C(=O)N(c3ccc(Cl)cc3)C(=O)C12)c1cccs1", "note": "(stereo not shown) [Compound 25q, (E)-13-(4-Chlorophenyl)-9-(3-oxo-3-(thiophen-2-yl)prop-1-en-1-yl)-9,10-dihydro-9,10-[3,4]epipyrroloanthracene-12,14-dione]", "values": [{"measurement": "cell viability", "setting": "[4]", "value": 47, "unit": "%"}]}, {"smiles": "O=C1C2C3c4ccccc4C(C=C[N+](=O)[O-])(c4ccccc43)C2C(=O)N1c1ccc(Cl)cc1", "note": "(stereo not shown) [Compound 20b]", "values": [{"measurement": "IC50", "setting": "[1]", "value": 760, "unit": "nM"}, {"measurement": "IC50", "setting": "[2]", "value": 850, "unit": "nM"}, {"measurement": "viability at 10 µM", "setting": "[2]", "value": 8, "unit": "%"}, {"measurement": "IC50", "setting": "[3]", "value": 660, "unit": "nM"}, {"measurement": "viability at 10 µM", "setting": "[3]", "value": 3, "unit": "%"}]}, {"smiles": "O=C1C2C(C(=O)N1c1ccccc1)C1(/C=C/[N+](=O)[O-])c3ccccc3C2(Cl)c2ccccc21", "note": "(stereo not shown) [Compound 20g]", "values": [{"measurement": "viability at 10 µM", "setting": "[2]", "value": 2, "unit": "%"}, {"measurement": "viability at 10 µM", "setting": "[3]", "value": 1, "unit": "%"}]}, {"smiles": "O=C(C=CC12c3ccccc3C(c3ccccc31)C1C(=O)N(c3ccc(Cl)cc3)C(=O)C12)c1ccc(Cl)cc1", "note": "(stereo not shown) [Compound 25l, (E)-13-(4-Chlorophenyl)-9-(3-(4-chlorophenyl)-3-oxoprop-1-en-1-yl)-9,10-dihydro-9,10-[3,4]epipyrroloanthracene-12,14-dione]", "values": [{"measurement": "cell viability", "setting": "[5]", "value": 24, "unit": "%"}]}, {"smiles": "O=C(c1ccccc1)c1ccc(N2C(=O)C3C4c5ccccc5C(/C=C/[N+](=O)[O-])(c5ccccc54)C3C2=O)cc1", "note": "(stereo not shown) [Compound 20c]", "values": [{"measurement": "IC50", "setting": "[1]", "value": 800, "unit": "nM"}, {"measurement": "IC50", "setting": "[2]", "value": 710, "unit": "nM"}, {"measurement": "viability at 10 µM", "setting": "[2]", "value": 11, "unit": "%"}, {"measurement": "IC50", "setting": "[3]", "value": 880, "unit": "nM"}, {"measurement": "viability at 10 µM", "setting": "[3]", "value": 4, "unit": "%"}]}, {"smiles": "Nc1nc(F)nc2c1ncn2[C@@H]1O[C@H](CO)[C@@H](O)[C@@H]1O", "note": "[Fludarabine, fludarabine, reference compound]", "values": [{"measurement": "IC50", "setting": "[1]", "value": 30100, "unit": "nM"}, {"measurement": "IC50", "setting": "[2]", "value": 28100, "unit": "nM"}, {"measurement": "IC50", "setting": "[3]", "value": 32000, "unit": "nM"}]}, {"smiles": "O=C(/C=C/c1c2ccccc2cc2ccccc12)c1ccc(Cl)cc1Cl", "note": "[Compound 21d, (E)-3-(anthracen-9-yl)-1-(2,4-dichlorophenyl)prop-2-en-1-one]", "values": [{"measurement": "viability at 1 µM", "setting": "[2]", "value": "50 to 61", "unit": "%"}, {"measurement": "viability at 10 µM", "setting": "[2]", "value": "37 to 54", "unit": "%"}, {"measurement": "viability at 10 µM", "setting": "[3]", "value": 50, "unit": "%"}]}, {"smiles": "O=C(/C=C/c1c2ccccc2cc2ccccc12)c1ccccn1", "note": "[Compound 21n, (E)-3-(anthracen-9-yl)-1-(pyridin-2-yl)prop-2-en-1-one]", "values": [{"measurement": "viability at 1 µM", "setting": "[2]", "value": "50 to 61", "unit": "%"}, {"measurement": "viability at 10 µM", "setting": "[2]", "value": "37 to 54", "unit": "%"}, {"measurement": "viability at 10 µM", "setting": "[3]", "value": 47, "unit": "%"}]}, {"smiles": "O=C1OC(=O)C2C1C1c3ccccc3C2(/C=C/[N+](=O)[O-])c2ccccc21", "note": "(stereo not shown) [Compound 20h]", "values": [{"measurement": "viability at 10 µM", "setting": "[2]", "value": 31, "unit": "%"}, {"measurement": "viability at 10 µM", "setting": "[3]", "value": 2, "unit": "%"}]}, {"smiles": "COc1c2ccccc2c(/C=C/[N+](=O)[O-])c2ccccc12", "note": "[Compound 18b, reference compound]", "values": [{"measurement": "IC50", "setting": "[1]", "value": 730, "unit": "nM"}]}, {"smiles": "O=C(/C=C/C12c3ccccc3C(c3ccccc31)C1C(=O)N(c3ccc(Cl)cc3)C(=O)C12)c1ccc(F)cc1", "note": "(stereo not shown) [Compound 25h, (E)-13-(4-Chlorophenyl)-9-(3-(4-fluorophenyl)-3-oxoprop-1-en-1-yl)-9,10-dihydro-9,10[3,4]epipyrroloanthracene-12,14-dione]", "values": [{"measurement": "cell viability", "setting": "[4]", "value": 35, "unit": "%"}]}]}
